Data taken from patent US9051310B2, “Nicotinamide derivative or salt thereof” (FUJIFILM Corporation, priority 2011, dated 2015).

Assays:
[1] = molecular target: T1, glutathione S-transferase (GST)-linked full-length human Syk protein (Homo sapiens, UniProt P43405); test: Syk enzyme assay; assay type: biochemical; settings: 0.83 nM Syk, time-resolved fluorescence; read-out: IC50 of Syk-inhibitory activity
T1 construct: glutathione S-transferase (GST)-linked full-length human Syk protein; purchased Carna Biosciences; host or cells: Baculovirus expression system
Summary of the method: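 Phosphotyrosine on a biotin-peptide substrate (0.5 μM) was read by time-resolved fluorescence at 615 and 665 nm with Eu-anti-pTyr antibody and APC-streptavidin after 1 h EDTA stop.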

[2] = tested on: THP-1 cells (TNFα secretion on human IgG-coated plate); test: TNFα generation assay; assay type: cell-based; settings: IFN-γ differentiated THP-1 cells, 7 hours, AlphaLISA, read-out: IC50 of TNFα generation inhibitory activity
Summary of the method: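 THP-1 cells were differentiated with 10 ng/ml IFN-γ for 2 days, then preincubated with compound for 30 min at room temperature. They were then plated at 5×10^4 cells/well on plates coated with human IgG (10 μg/ml). TNFα secreted over 7 h of culture was quantified by AlphaLISA.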

[3] = tested on: THP-1 cells (phagocytosis of opsonized Escherichia coli); test: Antibody-dependent phagocytosis assay; assay type: cell-based; settings: Homo sapiens; IFNγ differentiated THP-1 cells, opsonized pHrodo Escherichia coli, 3 hours; read-out: IC50 upon phagocytosis inhibition
Description: THP-1 cells (2×10^5 cells/ml), which were human monocytoid cells, were cultured in the presence of 10 ng/ml IFNγ for 2 days, and they were induced to differentiate into macrophage-like cells. The differentiation-induced THP-1 cells were recovered, and the cells (5×10^4 cells/well) were then allowed to react with a predetermined concentration of test compound at room temperature for 30 minutes. Thereafter, Escherichia coli (Life Technologies) labeled with a pH-sensitive dye (pHrodo) was subjected to opsonization using an anti-Escherichia coli antibody (Life Technologies). Then, the resultant was added to the THP-1 cells obtained above, followed by incubation at 37° C. for 3 hours. Opsonized Escherichia coli and cell-permeable fluorescent dye (Calcein AM) were simultaneously added thereto, followed by quantitative determination of phagocytosis of opsonized Escherichia coli in viable cells using an IN Cell Analyzer.

IC50 [1]	IC50 [2]	IC50 [3]	SMILES
< 0.01 µM	0.065 to 0.13 µM	1 to 3 µM	CC[C@@H](Nc1nc(Nc2ccc3c(c2)c(N(C)C)nn3C)c(C(N)=O)cc1F)[C@H](C)N [Example 2-4]
< 0.01 µM	0.065 to 0.13 µM	< 1 µM	CC[C@@H](Nc1nc(Nc2cnc(C)c(C)c2)c(C(N)=O)cc1F)[C@H](C)N [Example 2-17, 6-(((2S,3R)-2-aminopentan-3-yl)amino)-2-((5,6-dimethylpyridin-3-yl)amino)-5-fluoronicotinamide]
< 0.01 µM	0.13 to 0.2 µM	< 1 µM	C[C@H](N)[C@@H](CC1CC1)Nc1nc(Nc2cccc3c2cnn3CC(F)F)c(C(N)=O)cc1F [Example 2-21, 6-(((2R,3S)-3-amino-1-cyclopropylbutan-2-yl)amino)-2-((1-(2,2-difluoroethyl)-1H-indazol-4-yl)amino)-5-fluoronicotinamide]
< 0.01 µM	0.13 to 0.2 µM	< 1 µM	CC(C)C[C@@H](Nc1nc(Nc2cccc3c2cnn3CC(F)F)c(C(N)=O)cc1F)[C@H](C)N [Example 2-22, 6-(((2S,3R)-2-amino-5-methylhexan-3-yl)amino)-2-((1-(2,2-difluoroethyl)-1H-indazol-4-yl)amino)-5-fluoronicotinamide]
< 0.01 µM	0.065 to 0.13 µM	< 1 µM	CC[C@@H](Nc1nc(Nc2cccc3c2cnn3CC(F)F)c(C(N)=O)cc1F)[C@H](C)N [Example 2-23, 6-(((2S,3R)-2-aminopentan-3-yl)amino)-2-((1-(2,2-difluoroethyl)-1H-indazol-4-yl)amino)-5-fluoronicotinamide]
< 0.01 µM	0.065 to 0.13 µM	< 1 µM	CC[C@@H](Nc1nc(Nc2cnc(C)c(-n3nccn3)c2)c(C(N)=O)cc1F)[C@H](C)N [Example 2-31, 6-(((2S,3R)-2-aminopentan-3-yl)amino)-5-fluoro-2-((6-methyl-5-(2H-1,2,3-triazol-2-yl)pyridin-3-yl)amino)nicotinamide]
0.01 to 0.05 µM	0.13 to 0.2 µM	1 to 3 µM	CC[C@H](N)[C@@H](CC)Nc1nc(Nc2cnc(C)c(C)c2)c(C(N)=O)cc1F [Example 2-36, 6-(((3R,4S)-4-aminohexan-3-yl)amino) 2-((5,6-dimethylpyridin-3-yl)amino)-5-fluoronicotinamide]
< 0.01 µM	< 0.065 µM	< 1 µM	CC[C@H](N)[C@@H](C)Nc1nc(Nc2ccc3c(cnn3C)c2)c(C(N)=O)cc1F [Example 2-40, 6-(((2R,3S)-3-aminopentan-2-yl)amino)-5-fluoro-2-((1-methyl-1H-indazol-5-yl)amino)nicotinamide]
< 0.01 µM	0.065 to 0.13 µM	< 1 µM	Cc1cccc(Nc2nc(N[C@H](C3CC3)[C@H](C)N)c(F)cc2C(N)=O)c1 [Example 2-44, 6-(((1R,2S)-2-amino-1-cyclopropylpropyl)amino)-5-fluoro-2-(m-tolylamino)nicotinamide]
< 0.01 µM	0.13 to 0.2 µM	< 1 µM	CCn1nc(OC)c2cc(Nc3nc(N[C@H](CC(C)C)[C@H](C)N)c(F)cc3C(N)=O)ccc21 [Example 2-51, 6-(((2S,3R)-2-amino-5-methylhexan-3-yl)amino)-2-((1-ethyl-3-methoxy-1H-indazol-5-yl)amino)-5-fluoronicotinamide]
< 0.01 µM	0.13 to 0.2 µM	< 1 µM	CC[C@@H](Nc1nc(Nc2ccc3c(c2)c(OC)nn3CC)c(C(N)=O)cc1F)[C@H](C)N [Example 2-52, 6-(((2S,3R)-2-aminopentan-3-yl)amino)-2-((1-ethyl-3-methoxy-1H-indazol-5-yl)amino)-5-fluoronicotinamide]
0.01 to 0.05 µM	0.13 to 0.2 µM	< 1 µM	COc1ncc(Nc2nc(N[C@H](CC(C)C)[C@H](C)N)c(F)cc2C(N)=O)cc1F [Example 2-66, 6-(((2S,3R)-2-amino-5-methylhexan-3-yl)amino)-5-fluoro-2-((5-fluoro-6-methoxypyridin-3-yl)amino)nicotinamide]
< 0.01 µM	0.13 to 0.2 µM	1 to 3 µM	CC(C)C[C@@H](Nc1nc(Nc2cncc(-n3cccn3)c2)c(C(N)=O)cc1F)[C@H](C)N [Example 2-70, 2-((5-(1H-pyrazol-1-yl)pyridin-3-yl)amino)-6-(((2S,3R)-2-amino-5-methylhexan-3-yl)amino)-5-fluoronicotinamide]
< 0.01 µM	0.065 to 0.13 µM	< 1 µM	COc1nn(CC(F)F)c2ccc(Nc3nc(N[C@H](C4CC4)[C@H](C)N)c(F)cc3C(N)=O)cc12 [Example 2-74, 6-(((1R,2S)-2-amino-1-cyclopropylpropyl)amino)-2-((1-(2,2-difluoroethyl)-3-methoxy-1H-indazol-5-yl)amino)-5-fluoronicotinamide]
< 0.01 µM	0.13 to 0.2 µM	< 1 µM	CCC[C@@H](Nc1nc(Nc2cccc3c2cnn3CC)c(C(N)=O)cc1F)[C@H](C)N [Example 2-96, 6-(((2S,3R)-2-aminohexan-3-yl)amino)-2-((1-ethyl-1H-indazol-4-yl)amino)-5-fluoronicotinamide]
< 0.01 µM	0.13 to 0.2 µM	< 1 µM	CCn1ncc2c(Nc3nc(N[C@H](C4CCC4)[C@H](C)N)c(F)cc3C(N)=O)cccc21 [Example 2-98, 6-(((1R,2S)-2-amino-1-cyclobutylpropyl)amino)-2-((1-ethyl-1H-indazol-4-yl)amino)-5-fluoronicotinamide]
< 0.01 µM	0.13 to 0.2 µM	1 to 3 µM	COc1ncc(Nc2nc(N[C@H](C3CCC3)[C@H](C)N)c(F)cc2C(N)=O)cc1-n1nccn1 [Example 2-114, 6-(((1R,2S)-2-amino-1-cyclobutylpropyl)amino)-5-fluoro-2-((6-methoxy-5-(2H-1,2,3-triazol-2-yl)pyridin-3-yl)amino)nicotinamide]
< 0.01 µM	0.13 to 0.2 µM	1 to 3 µM	COC[C@@H](Nc1nc(Nc2ccc3c(c2)c(OC)nn3C)c(C(N)=O)cc1F)[C@H](C)N [Example 2-121, 6-(((2S,3S)-3-amino-1-methoxybutan-2-yl)amino)-5-fluoro-2-((3-methoxy-1-methyl-1H-indazol-5-yl)amino)nicotinamide]
< 0.01 µM	0.065 to 0.13 µM	< 1 µM	CCC[C@@H](Nc1nc(Nc2ccc3c(c2)c(OC)nn3CCOC)c(C(N)=O)cc1F)[C@H](C)N [Example 2-126, 6-(((2S,3R)-2-aminohexan-3-yl)amino)-5-fluoro-2-((3-methoxy-1-(2-methoxyethyl)-1H-indazol-5-yl)amino)nicotinamide]
< 0.01 µM	0.13 to 0.2 µM	< 1 µM	COCCn1nc(OC)c2cc(Nc3nc(N[C@H](CC(C)C)[C@H](C)N)c(F)cc3C(N)=O)ccc21 [Example 2-127, 6-(((2S,3R)-2-amino-5-methylhexan-3-yl)amino)-5-fluoro-2-((3-methoxy-1-(2-methoxyethyl)-1H-indazol-5-yl)amino)nicotinamide]
0.01 to 0.05 µM	0.13 to 0.2 µM	1 to 3 µM	COCCn1nc(C)c2cc(Nc3nc(N[C@H](COC)[C@H](C)N)c(F)cc3C(N)=O)ccc21 [Example 2-135, 6-(((2S,3S)-3-amino-1-methoxybutan-2-yl)amino)-5-fluoro-2-((1-(2-methoxyethyl)-3-methyl-1H-indazol-5-yl)amino)nicotinamide]
< 0.01 µM	–	1 to 3 µM	CCC[C@@H](Nc1nc(Nc2cncc3c2cnn3CC(F)F)c(C(N)=O)cc1F)[C@H](C)N [Example 2-397, 6-(((2S,3R)-2-aminohexan-3-yl)amino)-2-((1-(2,2-difluoroethyl)-1H-pyrazolo[3,4-c]pyridin-4-yl)amino)-5-fluoronicotinamide]
< 0.01 µM	–	1 to 3 µM	CCCC[C@@H](Nc1nc(Nc2cncc3c2cnn3CC(F)F)c(C(N)=O)cc1F)[C@H](C)N [Example 2-399, 6-(((2S,3R)-2-aminoheptan-3-yl)amino)-2-((1-(2,2-difluoroethyl)-1H-pyrazolo[3,4-c]pyridin-4-yl)amino)-5-fluoronicotinamide]
< 0.01 µM	–	1 to 3 µM	CCn1ncc2c(Nc3nc(N[C@@H](CN)CC(C)C)c(F)cc3C(N)=O)cncc21 [Example 2-405, (R)-6-((1-amino-4-methylpentan-2-yl)amino)-2-((1-ethyl-1H-pyrazolo[3,4-c]pyridin-4-yl)amino)-5-fluoronicotinamide]
0.01 to 0.05 µM	–	1 to 3 µM	COCCOc1cc(Nc2nc(N[C@H](Cc3ccccc3)[C@H](C)N)c(F)cc2C(N)=O)ccn1 [Example 2-427, 6-(((2R,3S)-3-amino-1-phenylbutan-2-yl)amino)-5-fluoro-2-((2-(2-methoxyethoxy)pyridin-4-yl)amino)nicotinamide]
